Results on 13 molecules are retold here after PubChem BioAssay (NCI).

Each structure is given as a SMILES string.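 Step 1: Grow cells in 96-well plates. Step 2: Expose to compound for 48 hours at 5 concentrations. Step 3: Interpolate endpoints linearly; if unreached, use highest concentration. GI50 marks 50% less growth. The concentration for full growth arrest is given as TGI.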 Some results are limits rather than exact numbers.

Test systems include SK-MEL-28 melanoma; HL-60(TB) leukemia; MOLT-4 leukemia; OVCAR-4 ovarian; PC-3 prostate; CAKI-1 renal; HT29 colon; HCC-2998 colon; M14 melanoma; SNB-19 CNS.
Holding throughout (test): NCI anticancer screen, dose series, 48 h

Regarding `CCN(CC)c1ccc(C(=N)c2ccc(N(CC)CC)cc2)cc1`, the GI50 with SK-MEL-28 melanoma was 0.916 µM; with HL-60(TB) leukemia, 0.276 µM; in the experiment on MOLT-4 leukemia, 0.594 µM; with OVCAR-4 ovarian, 1.55 µM; with PC-3 prostate it was 0.492 µM; in the experiment with CAKI-1 renal it was 0.588 µM. The GI50 with HT29 colon was 0.319 µM; with HCC-2998 colon, 1.1 µM; in the experiment on M14 melanoma, 0.524 µM; in the experiment with SNB-19 CNS it was 0.917 µM. For the same molecule, the TGI was 2.81 µM with SK-MEL-28 melanoma; 1.13 µM in the experiment on HL-60(TB) leukemia; 4.36 µM in the experiment with MOLT-4 leukemia; 15.9 µM in the experiment with OVCAR-4 ovarian; 4.76 µM in the experiment with PC-3 prostate; 5.85 µM with CAKI-1 renal. The TGI turned out to be 2.83 µM with HT29 colon, 3.17 µM in the experiment on HCC-2998 colon, 1.83 µM with M14 melanoma and 8.09 µM in the experiment with SNB-19 CNS.

Take `O=C(c1cccc(O)c1O)c1cn(Cc2ccc(F)cc2)c2cccc(O)c12`: the GI50 with SK-MEL-28 melanoma was 6.01 µM; in the experiment on HL-60(TB) leukemia, 1.36 µM; in the experiment on MOLT-4 leukemia it was 0.84 µM; with OVCAR-4 ovarian, 3.13 µM; with PC-3 prostate, 6.92 µM; in the experiment with CAKI-1 renal, 4.13 µM. Moreover, the GI50 in the experiment on HT29 colon was 7.43 µM; in the experiment on HCC-2998 colon, 1.55 µM; in the experiment on M14 melanoma it was 3.43 µM; with SNB-19 CNS it was 3.97 µM. Besides, the TGI amounted to 19.5 µM in the experiment on SK-MEL-28 melanoma; 6.93 µM with HL-60(TB) leukemia; 10.3 µM in the experiment with MOLT-4 leukemia; 16.2 µM in the experiment with OVCAR-4 ovarian; 26.7 µM with PC-3 prostate; 18.5 µM in the experiment on CAKI-1 renal. The TGI with HT29 colon was determined as 23.4 µM; in the experiment with HCC-2998 colon, 11.4 µM; in the experiment on M14 melanoma, 13.4 µM; in the experiment with SNB-19 CNS it was 17 µM.

Consider `COc1ccc(N2C(=O)C3c4[nH]c5ccc(C)cc5c4C4CCC(C(C)(C)C)CC4C3C2=O)cc1` (stereo not given), for which the TGI is 33.3 µM with SK-MEL-28 melanoma; > 100 µM in the experiment with HL-60(TB) leukemia; 34.9 µM in the experiment with MOLT-4 leukemia; 10.8 µM in the experiment with OVCAR-4 ovarian; > 100 µM with PC-3 prostate; 23.7 µM in the experiment on CAKI-1 renal. Also, the TGI was > 100 µM with HT29 colon, > 100 µM in the experiment on HCC-2998 colon, 34.3 µM in the experiment on M14 melanoma and 62.6 µM in the experiment with SNB-19 CNS.

For `CCOC(=O)c1c(CN2CCN(c3ccccc3)CC2)n(-c2ccccc2)c2cc(Br)c(O)cc12`, the GI50 in the experiment on SK-MEL-28 melanoma is 16.6 µM; in the experiment with HL-60(TB) leukemia, 4.12 µM; with MOLT-4 leukemia, 3.56 µM; with OVCAR-4 ovarian, 8.63 µM; in the experiment on PC-3 prostate, 3.21 µM; with CAKI-1 renal it was 15.3 µM. Moreover, the GI50 in the experiment on HT29 colon was 11.8 µM; with HCC-2998 colon, 15.7 µM; in the experiment on M14 melanoma, 15 µM; in the experiment with SNB-19 CNS, 21 µM. Also, the TGI was 42.1 µM in the experiment on SK-MEL-28 melanoma; > 100 µM in the experiment with HL-60(TB) leukemia; 29.5 µM in the experiment with MOLT-4 leukemia; 24.6 µM in the experiment on OVCAR-4 ovarian; 13.3 µM with PC-3 prostate; 36.9 µM with CAKI-1 renal. The TGI with HT29 colon is 32.5 µM; with HCC-2998 colon, 32.5 µM; in the experiment on M14 melanoma, 41.6 µM; in the experiment with SNB-19 CNS, 53.5 µM.

As for `CCOC(=O)Sc1ncnc2nc[nH]c12`, the GI50 with SK-MEL-28 melanoma was 43.7 µM; in the experiment on HL-60(TB) leukemia, 1.42 µM; in the experiment with MOLT-4 leukemia, 1.58 µM; with OVCAR-4 ovarian, 0.491 µM; in the experiment on PC-3 prostate, 4.07 µM; in the experiment with CAKI-1 renal it was 0.579 µM. Besides, the GI50 in the experiment with HT29 colon was 3.07 µM; with HCC-2998 colon it was 3.13 µM; in the experiment with M14 melanoma, 0.408 µM; in the experiment with SNB-19 CNS it was 85 µM. The TGI in the experiment with SK-MEL-28 melanoma is > 100 µM; in the experiment on HL-60(TB) leukemia it was 6.7 µM; in the experiment on MOLT-4 leukemia, 6.57 µM; in the experiment with OVCAR-4 ovarian, > 100 µM; with PC-3 prostate, > 100 µM; with CAKI-1 renal it was 6.31 µM. For the same molecule, the TGI in the experiment with HT29 colon, in the experiment with HCC-2998 colon, in the experiment on M14 melanoma and in the experiment with SNB-19 CNS was > 100 µM each time.

`COc1ccc(C(C)c2cc3c(cc2OC)OCO3)cc1` (stereo not given): the TGI was > 100 µM in the experiment on SK-MEL-28 melanoma; 2.87 µM in the experiment with HL-60(TB) leukemia; > 60.6 µM in the experiment with MOLT-4 leukemia; > 100 µM in the experiment on OVCAR-4 ovarian; > 100 µM in the experiment on PC-3 prostate; > 100 µM in the experiment on CAKI-1 renal. Further, the TGI was 0.43 µM in the experiment on HT29 colon, 3.62 µM in the experiment on HCC-2998 colon, 24.5 µM in the experiment on M14 melanoma and > 100 µM in the experiment with SNB-19 CNS.

As to `CCS(=O)(=O)c1ccc(OC)c(Nc2ncc(-c3cccc(C(C)=O)c3)o2)c1`, the GI50 in the experiment on SK-MEL-28 melanoma was > 25 µM; in the experiment on HL-60(TB) leukemia, > 25 µM; in the experiment on MOLT-4 leukemia, > 25 µM; in the experiment with OVCAR-4 ovarian, > 25 µM; with PC-3 prostate it was > 25 µM; in the experiment with CAKI-1 renal, 8.71 µM. In addition, the GI50 in the experiment with HT29 colon was > 25 µM; in the experiment with HCC-2998 colon, > 25 µM; with M14 melanoma it was > 25 µM; in the experiment on SNB-19 CNS, 19.9 µM. In addition, the TGI in the experiment on SK-MEL-28 melanoma, with HL-60(TB) leukemia, in the experiment with MOLT-4 leukemia, with OVCAR-4 ovarian, with PC-3 prostate and with CAKI-1 renal was > 25 µM each time. For the same molecule, the TGI in the experiment on HT29 colon, in the experiment with HCC-2998 colon, with M14 melanoma and with SNB-19 CNS was > 25 µM throughout.

For `CN/N=C(/CCN1CCCC1)CC(c1ccccc1)c1c(O)c2ccccc2oc1=O` (stereo not given), the TGI in the experiment on SK-MEL-28 melanoma, with HL-60(TB) leukemia, in the experiment on MOLT-4 leukemia, with OVCAR-4 ovarian, with PC-3 prostate and in the experiment on CAKI-1 renal was > 100 µM each time. The TGI with HT29 colon, in the experiment with HCC-2998 colon, with M14 melanoma and with SNB-19 CNS was > 100 µM each time.

With `COc1ccc(C(=O)c2cc(C)c(OC)c(C)c2)c(OC)c1N(C(=O)C(Cl)Cl)C(=O)C(Cl)Cl`, the GI50 is 0.237 µM with SK-MEL-28 melanoma; 0.0306 µM with HL-60(TB) leukemia; 0.122 µM with MOLT-4 leukemia; 1.59 µM with OVCAR-4 ovarian; 0.0436 µM in the experiment with PC-3 prostate; 0.0415 µM in the experiment with CAKI-1 renal. The GI50 with HT29 colon was 0.323 µM; with HCC-2998 colon, 0.0799 µM; in the experiment with M14 melanoma, 0.0338 µM; in the experiment on SNB-19 CNS, 0.0492 µM. The TGI with SK-MEL-28 melanoma was > 100 µM; in the experiment with HL-60(TB) leukemia, 0.0956 µM; in the experiment with MOLT-4 leukemia, > 100 µM; in the experiment on OVCAR-4 ovarian, > 100 µM; in the experiment on PC-3 prostate, > 100 µM; in the experiment on CAKI-1 renal it was > 100 µM. Moreover, the TGI in the experiment with HT29 colon was > 40.6 µM; in the experiment on HCC-2998 colon it was > 41.2 µM; with M14 melanoma, > 100 µM; in the experiment on SNB-19 CNS, > 100 µM.

As to `CCCCCCCC(CC(=O)NC(CO)C(=O)NC(CO)CC(C)C)OC(=O)CC(CCCCCCC)OC(=O)CC(CCCCCCC)OC1OC(C)C(O)C(OC2OC(C)C(O)C(OC(C)=O)C2O)C1O` (stereo not given), the TGI with SK-MEL-28 melanoma came to 24.6 µM; in the experiment with HL-60(TB) leukemia it was 23.4 µM; in the experiment with MOLT-4 leukemia it was 16.8 µM; in the experiment with OVCAR-4 ovarian, 27.8 µM; in the experiment with PC-3 prostate it was 20.6 µM; in the experiment with CAKI-1 renal, 30.2 µM. Further, the TGI was 20.4 µM in the experiment with HT29 colon, 23.2 µM with HCC-2998 colon, 22.6 µM in the experiment on M14 melanoma and 20.4 µM with SNB-19 CNS.

`CC(C)c1ccc(C(=O)Nc2sc3c(c2C(N)=O)CCC(=O)C3)cc1`: the GI50 is 1.18 µM in the experiment with SK-MEL-28 melanoma; 0.615 µM in the experiment on HL-60(TB) leukemia; 0.461 µM in the experiment on MOLT-4 leukemia; 0.329 µM with OVCAR-4 ovarian; 0.242 µM in the experiment on PC-3 prostate; 0.334 µM in the experiment with CAKI-1 renal. The GI50 is 0.484 µM in the experiment with HT29 colon, 1.85 µM in the experiment on HCC-2998 colon, 0.522 µM in the experiment with M14 melanoma and 0.472 µM in the experiment with SNB-19 CNS. Also, the TGI is 3.01 µM with SK-MEL-28 melanoma; 4.82 µM in the experiment with HL-60(TB) leukemia; 3.17 µM in the experiment on MOLT-4 leukemia; 1.2 µM with OVCAR-4 ovarian; 1.31 µM in the experiment with PC-3 prostate; 1.55 µM in the experiment with CAKI-1 renal. Moreover, the TGI in the experiment on HT29 colon was determined as 5.34 µM; with HCC-2998 colon it was 4.23 µM; in the experiment with M14 melanoma, 2.44 µM; in the experiment on SNB-19 CNS it was 6.02 µM.

Regarding `COc1cc2oc(-c3ccc(O)cc3)cc(=O)c2c(OC)c1OC`, the TGI in the experiment on SK-MEL-28 melanoma, in the experiment with HL-60(TB) leukemia, in the experiment with MOLT-4 leukemia, in the experiment on OVCAR-4 ovarian, in the experiment with PC-3 prostate and in the experiment with CAKI-1 renal was > 100 µM in each case. Moreover, the TGI in the experiment on HT29 colon, in the experiment with HCC-2998 colon, with M14 melanoma and with SNB-19 CNS was > 100 µM in each case.

In the case of `COC(=O)C(=O)C(C(=O)C(=O)Nc1ccccc1C(N)=O)c1nc2ccc(Cl)cc2[nH]c1=O` (stereo not given), the TGI with SK-MEL-28 melanoma, in the experiment with HL-60(TB) leukemia, with MOLT-4 leukemia, in the experiment with OVCAR-4 ovarian, in the experiment with PC-3 prostate and with CAKI-1 renal was > 100 µM throughout. For the same molecule, the TGI in the experiment with HT29 colon, with HCC-2998 colon, in the experiment with M14 melanoma and in the experiment with SNB-19 CNS was > 100 µM in each case.
